These results are taken from patent US20260297060A1, “COMPOUNDS FOR THE DEGRADATION OF MUTANT BRAF” (C4 THERAPEUTICS, INC., priority 2023, published 2026).

The assay deals with A375-NRAS^Q61K cells. Briefly: CTGlo Cell Viability Assay, A375-NRAS^Q61K (A375.11) cells, 96 hours. Format: cell-based, human. Conditions: A375.11 (A375-NRAS^Q61K) cells; for Emax: lowest % viability achieved. Summed up:
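Viability as CellTiter-Glo ATP luminescence after 96 h compound exposure at 37 °C; A375.11 (BRAF V600E/NRAS Q61K) cells at 250/well, top final concentration 10 μM in half-log steps. Signal was background-corrected and set relative to DMSO controls. A 4-parameter logistic fit gave GI50 (50% crossing) and Emax.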

Structures are written as SMILES.

In the case of `CCN(C)S(=O)(=O)Nc1ccc(F)c(Oc2ccc3ncn([C@H]4COC5(CCN(C6CCC(c7ccc(N[C@H]8CCC(=O)NC8=O)cc7F)CC6)CC5)C4)c(=O)c3c2)c1C#N` (single isomer, unassigned) [Compound 3], under “Homo sapiens, 96 h”, the GI50 (usually the concentration at which growth is held to half of that of the control) was < 1000 nM and the Emax is < 50%.

As for `CCN(C)S(=O)(=O)Nc1ccc(F)c(Oc2ccc3ncn([C@H]4COC5(CCN(C6CCC(c7ccc(N[C@@H]8CCC(=O)NC8=O)cc7F)CC6)CC5)C4)c(=O)c3c2)c1C#N` (single isomer, unassigned) [Compound 4], under “Homo sapiens, 96 h”, the GI50 was < 1000 nM and the Emax is < 50%.

Regarding `CCN(C)S(=O)(=O)Nc1ccc(F)c(Oc2ccc3ncn(C4CC5(CCN(C6CCC(c7ccc(NC8CCC(=O)NC8=O)cc7F)CC6)CC5)C4)c(=O)c3c2)c1C#N` (single isomer, unassigned) [Compound 6, 6-[2-cyano-3-[[ethyl(methyl)sulfamoyl]amino]-6-fluoro-phenoxy]-3-[7-[4-[4-[(2,6-dioxo-3-piperidyl)amino]-2-fluoro-phenyl]cyclohexyl]-7-azaspiro[3.5]nonan-2-yl]-4-oxo-quinazoline], for the setting “Homo sapiens, 96 h”, the GI50 was < 1000 nM and the Emax was < 50%.

As to `CCN(C)S(=O)(=O)Nc1ccc(F)c(Oc2ccc3ncn(C4CC5(CCN(C6CCC(c7cc8c(cc7F)c(N7CCC(=O)NC7=O)nn8C)CC6)CC5)C4)c(=O)c3c2)c1C#N` (single isomer, unassigned) [Compound 8, 6-[2-cyano-3-[[ethyl(methyl)sulfamoyl]amino]-6-fluoro-phenoxy]-3-[7-[4-[3-(2,4-dioxohexahydropyrimidin-1-yl)-5-fluoro-1-methyl-indazol-6-yl]cyclohexyl]-7-azaspiro[3.5]nonan-2-yl]-4-oxo-quinazoline], under “Homo sapiens, 96 h”, the GI50 is < 1000 nM and the Emax was < 50%.

Where the note is “Homo sapiens, 96 h”, `CCN(C)S(=O)(=O)Nc1ccc(F)c(Oc2ccc3ncn([C@@H]4C[C@@H]5CN(C6CCC(c7ccc(NC8CCC(=O)NC8=O)cc7F)CC6)C[C@@H]5C4)c(=O)c3c2)c1C#N` (single isomer, unassigned) [Compound 21] displayed a GI50 of 1000 to 10000 nM and an Emax of 50 to 90%.

With `CCN(C)S(=O)(=O)Nc1ccc(F)c(Oc2ccc3ncn([C@H]4CCC5(CCN(C6CCC(c7ccc(NC8CCC(=O)NC8=O)cc7F)CC6)CC5)C4)c(=O)c3c2)c1C#N` (single isomer, unassigned) [Compound 24], where the note is “Homo sapiens, 96 h”, the GI50 is < 1000 nM and the Emax is < 50%.

As for `CCN(C)S(=O)(=O)Nc1ccc(F)c(Oc2ccc3ncn([C@H]4COC5(CCN(C6CCC(c7cc8c(cc7F)c(N7CCC(=O)NC7=O)nn8C)CC6)CC5)C4)c(=O)c3c2F)c1C#N` (single isomer, unassigned) [Compound 41], where the note is “Homo sapiens, 96 h”, the GI50 is < 1000 nM and the Emax is < 50%.

Consider `CCN(C)S(=O)(=O)Nc1ccc(F)c(Oc2ccc3ncn([C@H]4COC5(CCN(C6CCC(c7cc8c(cc7F)c(N7CCC(=O)NC7=O)nn8C)CC6O)CC5)C4)c(=O)c3c2)c1C#N` (single isomer, unassigned) [Compound 43], for which, under “Homo sapiens, 96 h”, the GI50 is < 1000 nM and the Emax is 50 to 90%.

Regarding `CCN(C)S(=O)(=O)Nc1ccc(F)c(Oc2ccc3ncn([C@@H]4COC5(CCN(C6CCC(c7cc8c(cc7F)c(N7CCC(=O)NC7=O)nn8C)CC6)CC5)C4)c(=O)c3c2F)c1C#N` (single isomer, unassigned) [Compound 46], for the setting “Homo sapiens, 96 h”, the GI50 is < 1000 nM and the Emax was < 50%.

For the molecule `CCN(C)S(=O)(=O)Nc1ccc(F)c(Oc2ccc3ncc([C@H]4COC5(CCN(C6CCC(c7cc8c(cc7F)c(N7CCC(=O)NC7=O)nn8C)CC6)CC5)C4)nc3c2)c1C#N` (single isomer, unassigned) [Compound 48], where the note is “Homo sapiens, 96 h”, the concentration for 50% growth inhibition (GI50) is < 1000 nM and the Emax was < 50%.

As for `CCN(C)S(=O)(=O)Nc1ccc(F)c(Oc2ccc3ncn([C@H]4COC5(CCN(C6CCC(c7ccc(NC8CCC(=O)NC8=O)cc7F)CC6)CC5)C4)c(=O)c3c2F)c1C#N` (single isomer, unassigned) [Compound 50], under “Homo sapiens, 96 h”, the GI50 was < 1000 nM and the Emax is < 50%.

Consider `CCN(C)S(=O)(=O)Nc1ccc(F)c(Oc2ccc3ncn([C@@H]4COC5(CCN(C6CCC(c7ccc(NC8CCC(=O)NC8=O)cc7F)CC6)CC5)C4)c(=O)c3c2F)c1C#N` (single isomer, unassigned) [Compound 52], for which the GI50 was > 10000 nM. For the setting “Homo sapiens, 96 h”, this molecule returned an Emax of 50 to 90%.

For `CCN(C)S(=O)(=O)Nc1ccc(F)c(Oc2ccc3ncc([C@H]4COC5(CCN(C6CCC(c7ccc(NC8CCC(=O)NC8=O)cc7F)CC6)CC5)C4)nc3c2)c1C#N` (single isomer, unassigned) [Compound 58], for the setting “Homo sapiens, 96 h”, the GI50 was < 1000 nM and the Emax was < 50%.

Turning to `CCN(C)S(=O)(=O)Nc1ccc(F)c(Oc2ccc3ncn([C@H]4COC5(CCN(C6CC(c7ccc(NC8CCC(=O)NC8=O)cc7F)C6)CC5)C4)c(=O)c3c2)c1C#N` (single isomer, unassigned) [Compound 62], where the note is “Homo sapiens, 96 h”, the GI50 was < 1000 nM and the Emax is < 50%.

`CCN(C)S(=O)(=O)Nc1ccc(F)c(Nc2ccc3ncn([C@H]4COC5(CCN(C6CCC(c7cc8c(cc7F)c(N7CCC(=O)NC7=O)nn8C)CC6)CC5)C4)c(=O)c3c2)c1C#N` (single isomer, unassigned) [Compound 64] gave a GI50 of 1000 to 10000 nM. The Emax (Homo sapiens, 96 h) lay in the range of 50 to 90%.

In the case of `CCN(C)S(=O)(=O)Nc1ccc(F)c(Nc2ccc3ncn([C@H]4COC5(CCN(C6CCC(c7cc8c(cc7F)c(N7CCC(=O)NC7=O)nn8C)CC6)CC5)C4)c(=O)c3c2F)c1C#N` (single isomer, unassigned) [Compound 67], under “Homo sapiens, 96 h”, the GI50 was < 1000 nM and the Emax is < 50%.

Regarding `CCN(C)S(=O)(=O)Nc1ccc(F)c(Oc2ccc3ncn([C@H]4COC5(CCN(C6CCC(c7cc8c(cc7F)c(N7CCC(=O)NC7=O)nn8C)CC6)CC5)C4)c(=O)c3c2)c1F` (single isomer, unassigned) [Compound 71], under “Homo sapiens, 96 h”, the GI50 was < 1000 nM and the Emax was < 50%.

Turning to `CN(CCO)S(=O)(=O)Nc1ccc(F)c(Oc2ccc3ncn([C@H]4COC5(CCN(C6CCC(c7cc8c(cc7F)c(N7CCC(=O)NC7=O)nn8C)CC6)CC5)C4)c(=O)c3c2)c1C#N` (single isomer, unassigned) [Compound 73], for the setting “Homo sapiens, 96 h”, the 50% growth inhibitory concentration (GI50) is 1000 to 10000 nM and the Emax was < 50%.

Consider `CN(CCO)S(=O)(=O)Nc1ccc(F)c(Oc2ccc3ncn([C@H]4COC5(CCN(C6CCC(c7ccc(NC8CCC(=O)NC8=O)cc7F)CC6)CC5)C4)c(=O)c3c2)c1C#N` (single isomer, unassigned) [Compound 76], for which, for the setting “Homo sapiens, 96 h”, the GI50 is < 1000 nM and the Emax is < 50%.

With `CCN(C)S(=O)(=O)Nc1ccc(F)c(Oc2ccc3ncn([C@H]4COC5(CCN(C6CCC(c7ccc(NC8CCC(=O)NC8=O)cc7F)CC6)CC5)C4)c(=O)c3c2)c1F` (single isomer, unassigned) [Compound 78], under “Homo sapiens, 96 h”, the GI50 is < 1000 nM and the Emax was < 50%.

For `CN(CCO)S(=O)(=O)Nc1ccc(F)c(Oc2ccc3ncn(C4CC5(CCN(C6CCC(c7ccc(NC8CCC(=O)NC8=O)cc7F)CC6)CC5)C4)c(=O)c3c2)c1C#N` (single isomer, unassigned) [Compound 79, 6-[2-cyano-6-fluoro-3-[[2-hydroxyethyl(methyl)sulfamoyl]amino]phenoxy]-3-[7-[4-[4-[(2,6-dioxo-3-piperidyl)amino]-2-fluoro-phenyl]cyclohexyl]-7-azaspiro[3.5]nonan-2-yl]-4-oxo-quinazoline], the 50% growth inhibitory concentration (GI50) lay within 1000 to 10000 nM. Besides, the Emax (Homo sapiens, 96 h) lay in the range of 50 to 90%.

For `CN(CCO)S(=O)(=O)Nc1ccc(F)c(Oc2ccc3ncn(C4CC5(CCN(C6CCC(c7cc8c(cc7F)c(N7CCC(=O)NC7=O)nn8C)CC6)CC5)C4)c(=O)c3c2)c1C#N` (single isomer, unassigned) [Compound 81, 6-[2-cyano-6-fluoro-3-[[2-hydroxyethyl(methyl)sulfamoyl]amino]phenoxy]-3-[7-[4-[3-(2,4-dioxohexahydropyrimidin-1-yl)-5-fluoro-1-methyl-indazol-6-yl]cyclohexyl]-7-azaspiro[3.5]nonan-2-yl]-4-oxo-quinazoline], where the note is “Homo sapiens, 96 h”, the GI50 lay in the range of 1000 to 10000 nM and the Emax is 50 to 90%.

Turning to `CC(C)S(=O)(=O)Nc1ccc(F)c(Oc2ccc3ncn([C@H]4COC5(CCN(C6CCC(c7cc8c(cc7F)c(N7CCC(=O)NC7=O)nn8C)CC6)CC5)C4)c(=O)c3c2)c1C#N` (single isomer, unassigned) [Compound 87], for the setting “Homo sapiens, 96 h”, the GI50 is < 1000 nM and the Emax is < 50%.

`CCN(C)S(=O)(=O)Nc1ccc(F)c(Nc2ccc3ncn([C@@H]4COC5(CCN(C6CCC(c7ccc(NC8CCC(=O)NC8=O)cc7F)CC6)CC5)C4)c(=O)c3c2F)c1C#N` (single isomer, unassigned) [Compound 90]: where the note is “Homo sapiens, 96 h”, the GI50 is < 1000 nM and the Emax lay within 50 to 90%.

On to `CC(C)S(=O)(=O)Nc1ccc(F)c(Oc2ccc3ncn([C@H]4COC5(CCN(C6CCC(c7ccc(NC8CCC(=O)NC8=O)cc7F)CC6)CC5)C4)c(=O)c3c2)c1C#N` (single isomer, unassigned) [Compound 92], for which, where the note is “Homo sapiens, 96 h”, the GI50 was < 1000 nM and the Emax is < 50%.

`CC(C)S(=O)(=O)Nc1ccc(F)c(Oc2ccc3ncn(C4CC5(CCN(C6CCC(c7cc8c(cc7F)c(N7CCC(=O)NC7=O)nn8C)CC6)CC5)C4)c(=O)c3c2)c1C#N` (single isomer, unassigned) [Compound 95, N-[2-cyano-3-[3-[7-[4-[3-(2,4-dioxohexahydropyrimidin-1-yl)-5-fluoro-1-methyl-indazol-6-yl]cyclohexyl]-7-azaspiro[3.5]nonan-2-yl]-4-oxo-quinazolin-6-yl]oxy-4-fluoro-phenyl]propane-2-sulfonamide]: where the note is “Homo sapiens, 96 h”, the GI50 was < 1000 nM and the Emax was in the range of 50 to 90%.

For `CO[C@@H]1CCN(S(=O)(=O)Nc2ccc(F)c(Oc3ccc4ncn([C@H]5COC6(CCN(C7CCC(c8cc9c(cc8F)c(N8CCC(=O)NC8=O)nn9C)CC7)CC6)C5)c(=O)c4c3)c2C#N)C1` (single isomer, unassigned) [Compound 100], for the setting “Homo sapiens, 96 h”, the GI50 is < 1000 nM and the Emax was < 50%.
